Measurements published in ChEMBL document CHEMBL3217515, “Synthesis and biological evaluation of 2,3-bis(het)aryl-4-azaindole derivatives as protein kinase inhibitors” (Medchemcomm, 2011).

Tests used:
[1] = biological target: RAF proto-oncogene serine/threonine-protein kinase (Homo sapiens, UniProt P04049); experiment: Inhibition of RAF1 (unknown origin)
[2] = biological target: Glycogen synthase kinase-3 beta (Homo sapiens, UniProt P49841); experiment: Inhibition of GSK3beta (unknown origin)
[3] = biological target: Cyclin-dependent kinase 5 (Homo sapiens, UniProt Q00535); experiment: Inhibition of CDK5 (unknown origin)
[4] = biological target: Dual specificity tyrosine-phosphorylation-regulated kinase 1A (Homo sapiens, UniProt Q13627); experiment: Inhibition of DYRK1A (unknown origin)

Chain of RAF proto-oncogene serine/threonine-protein kinase (P04049 whole entry): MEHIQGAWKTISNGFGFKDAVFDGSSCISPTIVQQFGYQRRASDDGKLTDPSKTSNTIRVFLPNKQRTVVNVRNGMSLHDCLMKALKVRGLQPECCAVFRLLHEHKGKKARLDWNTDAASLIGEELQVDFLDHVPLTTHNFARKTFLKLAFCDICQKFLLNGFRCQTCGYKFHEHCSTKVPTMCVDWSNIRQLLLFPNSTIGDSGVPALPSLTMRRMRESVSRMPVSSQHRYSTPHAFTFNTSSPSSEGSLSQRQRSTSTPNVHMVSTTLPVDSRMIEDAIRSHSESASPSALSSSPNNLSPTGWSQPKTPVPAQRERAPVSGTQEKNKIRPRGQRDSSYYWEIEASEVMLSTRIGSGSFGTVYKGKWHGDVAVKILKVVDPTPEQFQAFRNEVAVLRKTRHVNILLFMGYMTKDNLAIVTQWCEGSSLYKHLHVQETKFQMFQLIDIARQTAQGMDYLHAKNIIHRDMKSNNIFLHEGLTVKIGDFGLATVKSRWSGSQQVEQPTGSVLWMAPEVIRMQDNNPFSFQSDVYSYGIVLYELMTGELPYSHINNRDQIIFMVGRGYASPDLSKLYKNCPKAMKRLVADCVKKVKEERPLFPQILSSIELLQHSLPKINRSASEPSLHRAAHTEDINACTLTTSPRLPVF
Chain of Glycogen synthase kinase-3 beta (P49841 whole entry): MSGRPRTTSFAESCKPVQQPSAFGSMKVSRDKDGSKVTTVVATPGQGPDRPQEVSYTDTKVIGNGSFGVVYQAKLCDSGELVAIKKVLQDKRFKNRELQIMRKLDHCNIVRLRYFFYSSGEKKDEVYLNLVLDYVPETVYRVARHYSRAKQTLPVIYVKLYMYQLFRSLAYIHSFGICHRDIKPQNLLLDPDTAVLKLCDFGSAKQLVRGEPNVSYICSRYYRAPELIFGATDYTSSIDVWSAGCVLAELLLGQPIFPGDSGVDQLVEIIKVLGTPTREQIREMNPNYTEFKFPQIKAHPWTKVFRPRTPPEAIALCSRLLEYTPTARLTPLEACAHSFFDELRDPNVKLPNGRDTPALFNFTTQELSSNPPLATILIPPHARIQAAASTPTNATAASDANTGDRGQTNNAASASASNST
Chain of Cyclin-dependent kinase 5 (Q00535 whole entry): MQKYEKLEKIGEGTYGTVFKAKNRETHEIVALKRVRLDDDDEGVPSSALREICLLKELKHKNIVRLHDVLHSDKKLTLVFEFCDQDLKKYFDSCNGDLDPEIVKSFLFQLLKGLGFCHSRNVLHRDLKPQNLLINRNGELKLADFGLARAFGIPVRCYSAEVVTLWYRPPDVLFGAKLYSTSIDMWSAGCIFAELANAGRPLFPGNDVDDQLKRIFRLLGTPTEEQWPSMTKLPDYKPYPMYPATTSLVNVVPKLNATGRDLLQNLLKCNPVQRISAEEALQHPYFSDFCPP

Compound | IC50 [1] | IC50 [2] | IC50 [3] | IC50 [4]
COc1ccc2[nH]c(-c3ccc4cc(O)ccc4c3)c(-c3ccncc3)c2n1 | > 50 µM | > 10 µM | > 10 µM | 0.84 µM
COc1ccc2[nH]c(-c3cccc(F)c3)c(-c3ccncc3)c2n1 | 4.3 µM | > 10 µM | > 10 µM | 1.8 µM
COc1ccc2[nH]c(-c3cccc(O)c3)c(-c3ccccn3)c2n1 | 9.2 µM | > 10 µM | > 10 µM | > 10 µM
COc1ccc2[nH]c(-c3cc(O)cc(O)c3)c(-c3ccncc3)c2n1 | > 50 µM | > 10 µM | > 10 µM | > 10 µM
COc1ccc2[nH]c(-c3ccccc3O)c(-c3ccncc3)c2n1 |  | > 10 µM | > 10 µM | 0.23 µM
COc1ccc2[nH]c(-c3cccc(O)c3)c(-c3cccnc3)c2n1 | 16.5 µM | > 10 µM | > 10 µM | > 10 µM
COc1ccc2[nH]c(-c3cccc(O)c3)c(-c3ccncc3)c2n1 | 0.286 µM | > 10 µM | > 10 µM | 0.7 µM
COc1ccc2[nH]c(-c3ccccc3)c(-c3ccncc3)c2n1 | 3.2 µM | > 10 µM | > 10 µM | 1.3 µM
COc1ccc2[nH]c(-c3ccc(O)cc3)c(-c3ccncc3)c2n1 | 1.3 µM | > 10 µM | > 10 µM | 0.47 µM
